Source: US8980906B2, “Pyridonemorphinan analogs and biological activity on opioid receptors” (Purdue Pharma L.P., priority 2012, dated 2015)

What was measured:
Type in all cases: biochemical
μ-opioid receptor [1] = target: T1, μ-opioid receptor (Homo sapiens (Human), UniProt P35372); test: μ-opioid receptor [35S]GTPγS functional assay, U-2 OS cells; conditions: for Emax: relative to DAMGO, U-2 OS cells
Description: (§1) μ-Opioid Receptor Functional Assay Procedures: [^35S]GTPγS functional assays were conducted using freshly thawed μ-receptor membranes prepared in-house from a cell line expressing recombinant μ opioid receptor in a HEK-293, CHO or U-2 OS cell background, or purchased from a commercial source (Perkin Elmer, Shelton, Conn.; or DiscovRx, Fremont, Calif.). Assay reactions were prepared by sequentially adding the following reagents to binding buffer (100 mM NaCl, 10 mM MgCl2, 20 mM HEPES, pH 7.4) on ice (final concentrations indicated): membrane protein (0.026 mg/mL), saponin ([…]), GDP ([…]) and [^35S]GTPγS (0.20 nM; Perkin Elmer, Shelton, Conn.). The prepared membrane solution (190 μl/well) was transferred to 96-shallow well polypropylene plates containing 10 μl of 20× concentrated stock solutions of the agonist [D-Ala^2, N-methyl-Phe^4 Gly-ol^5]-enkephalin (DAMGO) prepared in dimethyl sulfoxide (DMSO). Plates were incubated for 30 min at about 25° C. with shaking. Reactions were terminated by rapid filtration onto 96-well Unifilter GF/B filter plates (Perkin Elmer, Shelton, Conn.) using a 96-well tissue harvester (Perkin Elmer, Shelton, Conn.) followed by three filtration washes with 200 μl of ice-cold wash buffer (10 mM NaH2PO4, 10 mM Na2HPO4, pH 7.4). Filter plates were subsequently dried at 50° C. for 2-3 hours. BetaScint scintillation cocktail (Perkin Elmer, Shelton, Conn.) was added (50 μl/well) and plates were counted using a Packard Top-Count for 1 min/well. Data were analyzed using the sigmoidal dose-response curve fitting functions in GraphPad PRISM v. 3.0, or an in-house function for non-linear, sigmoidal dose-response curve-fitting.
(§2) μ-Opioid Receptor Functional Data: μ GTP EC50 is the concentration of a compound providing 50% of the maximal response for the compound at a μ-opioid receptor.
(§3) μ GTP Emax (%) is the maximal effect elicited by a compound relative to the effect elicited by DAMGO, a standard μ agonist. Generally, the μ GTP Emax (%) value measures the efficacy of a compound to treat or prevent pain or other Conditions.
(§4) The following TABLE 3 provides results on the activity response of certain Compounds of the Invention at the μ- and κ-opioid receptors determined as described above using U-2 OS cells.

κ-opioid receptor = κ-opioid receptor (Homo sapiens (Human), UniProt P41145); test: κ-opioid receptor [35S]GTPγS functional assay, U-2 OS cells; conditions: for Emax: relative to U69,593, U-2 OS cells
Description: κ-Opioid Receptor Functional Assay Procedures: Functional [^35S]GTPγS binding assays were conducted as follows. κ opioid receptor membrane solution was prepared by sequentially adding final concentrations of 0.026 μg/μl κ membrane protein (in-house), 10 μg/mL saponin, 3 μM GDP and 0.20 nM [^35S]GTPγS to binding buffer (100 mM NaCl, 10 mM MgCl2, 20 mM HEPES, pH 7.4) on ice. The prepared membrane solution (190 μl/well) was transferred to 96-shallow well polypropylene plates containing 10 μl of 20× concentrated stock solutions of agonist prepared in DMSO. Plates were incubated for 30 min at a temperature of about 25° C. with shaking. Reactions were terminated by rapid filtration onto 96-well Unifilter GF/B filter plates (Perkin Elmer, Shelton, Conn.) using a 96-well tissue harvester (Packard) and followed by three filtration washes with 200 μl ice-cold binding buffer (10 mM NaH2PO4, 10 mM Na2HPO4, pH 7.4). Filter plates were subsequently dried at 50° C. for 2-3 hours. Fifty μl/well scintillation cocktail (Perkin Elmer, Shelton, Conn.) was added and plates were counted in a Packard Top-Count for 1 min/well.
κ-Opioid Receptor Functional Data: κ GTP EC50 is the concentration of a compound providing 50% of the maximal response for the compound at a κ receptor.
κ GTP Emax (%) is the maximal effect elicited by a compound relative to the effect elicited by U69,593.
as §4

μ-opioid receptor [2] = target: T1, μ-opioid receptor; test: μ-opioid receptor [35S]GTPγS functional assay, HEK-293 or CHO cells
Description: as §1, §2, §3
In TABLE 2, activity response of certain Compounds of the Invention to the μ-, δ- and κ-opioid receptors was determined as described above for functional assays using HEK-293 or CHO cells.

[3] = relative to DAMGO, HEK-293 or CHO cells

Row | SMILES | EC50 (μ-opioid receptor [1]) | Emax (μ-opioid receptor [1]) | EC50 (κ-opioid receptor) | Emax (κ-opioid receptor) | EC50 (μ-opioid receptor [2]) | Emax (μ-opioid receptor [2]; [3]) | EC50 (μ-opioid receptor [2]; GTPγS, HEK-293 or CHO cells, bound given in μM, read-out: μ EC50) | μ Emax (%) (μ-opioid receptor [2]; [3])
1 | COc1ccc2c(c1)[C@]13CCN[C@H](C2)[C@]1(O)Cc1cc(C(N)=O)c(=O)[nH]c1C3 [Compound 32, (6R,6aS,12aR)-6a-hydroxy-2-methoxy-10-oxo-6,6a,7,10,11,12-hexahydro-5H-6,12a-(epiminoethano)naphtho[2,1-g]quinoline-9-carboxamide] | > 20000 nM | 17.5% | > 20000 nM | 6.7 ± 6.56% |  |  |  | 
2 | NC(=O)c1cc2c([nH]c1=O)C[C@]13CCN(CC(F)(F)F)[C@H](Cc4ccc(O)cc41)[C@]3(O)C2 [Compound 34, (6R,6aS,12aR)-2,6a-dihydroxy-10-oxo-15-(2,2,2-trifluoroethyl)-6,6a,7,10,11,12-hexahydro-5H-6,12a-(epiminoethano)naphtho[2,1-g]quinoline-9-carboxamide] | > 20000 nM | 8.5% | > 20000 nM | 0% |  |  |  | 
3 | NC(=O)c1cc2c([nH]c1=O)C[C@]13CCN(CCF)[C@H](Cc4ccc(O)cc41)[C@]3(O)C2 [Compound 35, (6R,6aS,12aR)-15-(2-fluoroethyl)-2,6a-dihydroxy-10-oxo-6,6a,7,10,11,12-hexahydro-5H-6,12a-(epiminoethano)naphtho[2,1-g]quinoline-9-carboxamide] | > 20000 nM | 2.5% | 93.7 ± 27.7 nM | 66 ± 1.53% |  |  |  | 
4 | CN1CC[C@]23Cc4c(cc(C(N)=O)c(=O)n4C)C[C@@]2(O)[C@H]1Cc1ccc(O)cc13 [Compound 39, (6R,6aS,12aR)-2,6a-dihydroxy-11,15-dimethyl-10-oxo-6,6a,7,10,11,12-hexahydro-5H-6,12a-(epiminoethano)naphtho[2,1-g]quinoline-9-carboxamide] | 164 ± 59 nM | 33.7 ± 8.01% | 641.6 ± 3.49 nM | 54 ± 3.61% |  |  |  | 
5 | COc1ccc2c(c1)[C@]13CCN(C)[C@H](C2)[C@]1(O)Cc1cc(C(=O)O)c(=O)[nH]c1C3 [Compound 40, (6R,6aS,12aR)-6a-hydroxy-2-methoxy-15-methyl-10-oxo-6,6a,7,10,11,12-hexahydro-5H-6,12a-(epiminoethano)naphtho[2,1-g]quinoline-9-carboxylic acid] | 13900 ± 1630 nM | 72 ± 4.16% | > 20000 nM | 96 ± 1.53% |  |  |  | 
6 | CN1CC[C@]23Cc4[nH]c(=O)c(C(=O)O)cc4C[C@@]2(O)[C@H]1Cc1ccc(O)cc13 [Compound 41, (6R,6aS,12aR)-2,6a-dihydroxy-15-methyl-10-oxo-6,6a,7,10,11,12-hexahydro-5H-6,12a-(epiminoethano)naphtho[2,1-g]quinoline-9-carboxylic acid] | 111 ± 8.9 nM | 58.2 ± 2.32% | 568 ± 33.3 nM | 70 ± 4.58% |  |  |  | 
7 | CN1CC[C@]23Cc4[nH]c(=O)c(C(=O)NCC5CCCCC5)cc4C[C@@]2(O)[C@H]1Cc1ccc(O)cc13 [Compound 44, (6R,6aS,12aR)—N-(cyclohexylmethyl)-2,6a-dihydroxy-15-methyl-10-oxo-6,6a,7,10,11,12-hexahydro-5H-6,12a-(epiminoethano)naphtho[2,1-g]quinoline-9-carboxamide] | 439 ± 27.4 nM | 88.3 ± 0.88% | 92.5 ± 24.2 nM | 67 ± 1% |  |  |  | 
8 | CN1CC[C@]23Cc4[nH]c(=O)c(C(=O)NCc5ccccc5)cc4C[C@@]2(O)[C@H]1Cc1ccc(O)cc13 [Compound 45, (6R,6aS,12aR)—N-benzyl-2,6a-dihydroxy-15-methyl-10-oxo-6,6a,7,10,11,12-hexahydro-5H-6,12a-(epiminoethano)naphtho[2,1-g]quinoline-9-carboxamide] | 306 ± 25.2 nM | 90 ± 1.53% | 128 ± 8.96 nM | 94.3 ± 5.61% |  |  |  | 
9 | CN(C)C(=O)c1cc2c([nH]c1=O)C[C@]13CCN(C)[C@H](Cc4ccc(O)cc41)[C@]3(O)C2 [Compound 46, (6R,6aS,12aR)-2,6a-dihydroxy-N,N,15-trimethyl-10-oxo-6,6a,7,10,11,12-hexahydro-5H-6,12a-(epiminoethano)naphtho[2,1-g]quinoline-9-carboxamide] | 157 ± 16.4 nM | 84.7 ± 2.19% | 624 ± 83.6 nM | 73 ± 6.99% |  |  |  | 
10 | CN1CC[C@]23Cc4[nH]c(=O)c(C(=O)N5CCOCC5)cc4C[C@@]2(O)[C@H]1Cc1ccc(O)cc13 [Compound 47, (6R,6aS,12aR)-2,6a-dihydroxy-15-methyl-9-(morpholine-4-carbonyl)-6a,7,11,12-tetrahydro-5H-6,12a-(epiminoethano)naphtho[2,1-g]quinolin-10(6H)-one] | 156 ± 12.7 nM | 82 ± 1.73% | 511 ± 139 nM | 50 ± 2.74% |  |  |  | 
11 | O=C(c1cc2c([nH]c1=O)C[C@]13CCN(CC4CC4)[C@H](Cc4ccc(O)cc41)[C@@H]3C2)N1CCS(=O)(=O)CC1 [Compound 60, (6R,6aR,12aS)-15-(cyclopropylmethyl)-9-(1,1-dioxidothiomorpholine-4-carbonyl)-2-hydroxy-6,6a,7,12-tetrahydro-5H-6,12a-(epiminoethano)naphtho[2,1-g]quinolin-10(11H)-one] |  |  |  |  | > 20 µM | -1 ± 1% |  | 
12 | O=C(N[C@@H]1c2ccccc2C[C@@H]1O)c1cc2c([nH]c1=O)C[C@]13CCN(CC4CC4)[C@H](Cc4ccc(O)cc41)[C@@H]3C2 [Compound 61, (6R,6aR,12aS)-15-(cyclopropylmethyl)-2-hydroxy-N-((1R,2S)-2-hydroxy-2,3-dihydro-1H-inden-1-yl)-10-oxo-6,6a,7,10,11,12-hexahydro-5H-6,12a-(epiminoethano)naphtho[2,1-g]quinoline-9-carboxamide] |  |  |  |  | > 20 µM | -1% |  | 
13 | O=C(N[C@H]1c2ccccc2C[C@H]1O)c1cc2c([nH]c1=O)C[C@]13CCN(CC4CC4)[C@H](Cc4ccc(O)cc41)[C@@H]3C2 [Compound 62, (6R,6aR,12aS)-15-(cyclopropylmethyl)-2-hydroxy-N-((1S,2R)-2-hydroxy-2,3-dihydro-1H-inden-1-yl)-10-oxo-6,6a,7,10,11,12-hexahydro-5H-6,12a-(epiminoethano)naphtho[2,1-g]quinoline-9-carboxamide] |  |  |  |  | > 20 µM | -1% |  | 
14 | CN(C(=O)c1cc2c([nH]c1=O)C[C@]13CCN(CC4CC4)[C@H](Cc4ccc(O)cc41)[C@@H]3C2)C1CCCCC1 [Compound 63, (6R,6aR,12aS)—N-cyclohexyl-15-(cyclopropylmethyl)-2-hydroxy-N-methyl-10-oxo-6,6a,7,10,11,12-hexahydro-5H-6,12a-(epiminoethano)naphtho[2,1-g]quinoline-9-carboxamide] |  |  |  |  | > 20 µM | -1% |  | 
15 | O=C(c1cc2c([nH]c1=O)C[C@]13CCN(CC4CC4)[C@H](Cc4ccc(O)cc41)[C@@H]3C2)N1Cc2ccccc2C1 [Compound 64, (6R,6aR,12aS)-15-(cyclopropylmethyl)-2-hydroxy-9-(isoindoline-2-carbonyl)-6,6a,7,12-tetrahydro-5H-6,12a-(epiminoethano)naphtho[2,1-g]quinolin-10(11H)-one] |  |  |  |  | > 20 µM | 3.5% |  | 
16 | O=C(c1cc2c([nH]c1=O)C[C@]13CCN(CC4CC4)[C@H](Cc4ccc(O)cc41)[C@@H]3C2)N1[C@@H]2CC[C@H]1C[C@@H](O)C2 [Compound 65, (6R,6aR,12aS)-15-(cyclopropylmethyl)-2-hydroxy-9-((1R,R,5S)-3-hydroxy-8-azabicyclo[3.2.1]octane-8-carbonyl)-6,6a,7,12-tetrahydro-5H-6,12a-(epiminoethano)naphtho[2,1-g]quinolin-10(11H)-one] |  |  |  |  |  |  | > 20 µM | 4.00%
